The values below are quoted from earlier work in patent US7858598B2, “Reagents for detection of hypochlorous acid” (Morningside Ventures Limited & Versitech Limited, priority 2007, dated 2010).

Molecules are shown by their SMILES.

For the compound `OCl` [hypochlorous acid], the pKa (usually the pH at which an ionisable group is half protonated) is listed as 7.6.
